This note sets out measurements from US11000535B2, “Anticancer composition and use thereof” (KAOHSIUNG MEDICAL UNIVERSITY, priority 2015, dated 2021).

Type in all cases: cell-based, human
For data set [1], the system named is c-Myc protein. As to the kind of experiment: c-Myc protein expression by immunoblotting, HL60. The conditions noted are these: HL60 cells, 0.1 mg/mL. As for the experimental part: Human prostate cancer cell line PC-3 and human promyelocytic leukemia cell line HL-60 were cultured in Gibco BRL company RPMI (Roswell Park Memorial Institute) 1640's medium.
(§1) Cells or xenograft tumors were harvested with RIPA lysis buffer (50 mM Tris (pH 7.5), 150 mM NaCl, 1% Triton X-100, 0.1% sodium dodecyl sulfate (SDS), 0.5% sodium deoxycholate, supplemented with protease and phosphatase inhibitors (1 mM Phenylmethanesulfonyl Fluoride (PMSF), […], […] Tosyllysine Chloromethyl Ketone (TLCK), […] Tosyl phenylalanyl chloromethyl ketone (TPCK), […] aprotinin, 1 mM sodium fluoride (NaF), 5 mM sodium pyrophosphate (NaPPi) and 10 mM sodium orthovanadate (Na3VO4).
(§2) Protein lysates were quantified and separated on SDS-PAGE gel, and immunoblotting was carried out.

Data set [2] relates to Huh7 cells (shLacZ, shGNMT, shMyc, c-Myc overexpression). As to the kind of experiment: PGG cytotoxicity in Huh7 cells with GNMT or c-Myc knock-out or c-Myc overexpression. The procedure: As to the mechanism for how to suppress the growth of liver cancer cells by PGG, it was deduced that by virtue of induced GNMT expression by PGG it could interfere liver cancer cells. And it can be expected to have the claimed therapeutic effect of PGG by knocking out GNMT. With transformed Huh7 cells, shRNAs which have stable expressions of GNMT are evaluated.
Please refer to FIG. 40, which illustrates PGG affects the viability in different cell lines, wherein the numeral 1 denotes shLacZ, the numeral 2 denotes shGNMT-1, and the numeral 3 denotes shGNMT-2.
Please refer to FIG. 41, which illustrates the viability in Huh7 cells, wherein the numeral 1 denotes vehicle, the numeral 2 denotes c-Myc, the numeral 3 denotes solvent, and the numeral 4 denotes PGG.
Please refer to FIG. 44, which illustrates the viability in Huh7 cells, wherein the numeral 1 denotes shLacZ, and the numeral 2 denotes shMyc.
Stablized cells comprises Huh7-GFP, Huh7-GNMT, Huh7-shGNMT, Huh7-shLacZ and Huh7-shMyc, which are established via the lentivirus system and cultured in Dulbecco's Modified Eagle's Medium (DMEM) (Gibco BRL, Grand Island, N.Y., USA) with 1 μg/ml puromycin.

Another data set has as its system HepG2 cells. As to the kind of experiment: alamarBlue cell viability, HepG2. From the text:
Next, we analyzed the effect of PGG on cell proliferation in different liver cancer cell lines, including Huh7, Hep3B (ATCC-No 8064), HepG2 (ATCC HB-8065), SK-HEP-1 (ATCC HTB-52), Mahlavu and HepG2 (ATCC HB-8065).
Please refer to FIG. 18, which illustrates the effect of PGG on cell proliferation in different liver cancer cell lines, wherein the numeral 1 denotes Huh7 cells, the numeral 2 denotes Hep3B cells, the numeral 3 denotes SK-HEP-1 cells, the numeral 4 denotes Mahlavu cells, and the numeral 5 denotes HepG2 cells. And cell viability was determined by the alamarBlue® viability assay. IC50 values of PGG in each cell line are shown as follows: Huh7 cells 0.03 mg/mL, Hep3B cells 0.07 mg/mL, SK-HEP-1 cells, Mahlavu cells and HepG2 0.10 mg/mL dose-dependent.
Human liver cancer cell lines Huh7, Hep G2, Hep 3B, SK-HEP-1, Mahlavu and embryonic kidney cell line HEK-293T all were cultured in Dulbecco's Modified Eagle's Medium (DMEM) (Gibco BRL, Grand Island, N.Y., USA) with 10% heat-inactivated fetal bovine serum (HyClone, Logan, Utah, USA), penicillin (100 U/mL), streptomycin ([…]), nonessential amino acids (0.1 mM/L) and L-glutamine (2 mM/L) in a humidified incubator with 5% CO2.

Another data set concerns GNMT. As to the kind of experiment: GNMT mRNA and protein expression in Huh7 cells (qPCR, immunoblot). The procedure: RNA was prepared by using Tri Reagent (Sigma-Aldrich, St Louis, Mo., USA) and was reverse transcribed into cDNA using a Super Script II Reverse Transcriptase Kit (Invitrogen Inc., Carlsbad, Calif., USA).
PCR was performed on an ABI StepOne Plus System (Applied Biosystems, Foster City, Calif., USA) using the LightCycler® First Start DNA Master SYBR Green I reagent (Roche Diagnostics, Basel, Switzerland). The mRNA level was normalized using the TATA-box binding protein (TBP) mRNA level as the standard.
The following primers were used: GNMT forward, 5′-ACTGGATGACT CTGGACAA-3′ (SEQ ID NO. 3) and reverse, 5′-ACTGAGGATGTGGTCGT-3′(SEQ ID NO. 4); TBP forward, 5′-[…]-3′ (SEQ ID NO. 5) and reverse, 5′-[…]-3′(SEQ ID NO. 6); c-Myc forward, […](SEQ ID NO. 7) and reverse, […](SEQ ID NO. 8).
as §1, §2
The following antibodies were used: anti-GNMT (14-1, YMAC Bio Tech, Taiwan), anti-caspase-3 (9H19L2, Thermo Scientific) and anti-actin (AC-15, Sigma-Aldrich).

Data set [3] has as its system c-Myc protein. As to the kind of experiment: c-Myc protein expression by immunoblotting, Huh7. The conditions noted are these: Huh7 cells. The procedure: Please refer to FIG. 32A, FIG. 32B, FIG. 33A and FIG. 33B.
as §1, §2

SMILES strings stand for the structures. Values after ≈ are worked out from the molar mass of the structure shown.

As for `O=C(OC[C@H]1O[C@@H](OC(=O)c2cc(O)c(O)c(O)c2)[C@H](OC(=O)c2cc(O)c(O)c(O)c2)[C@@H](OC(=O)c2cc(O)c(O)c(O)c2)[C@@H]1OC(=O)c1cc(O)c(O)c(O)c1)c1cc(O)c(O)c(O)c1` [PGG, 1,2,3,4,6-penta-O-galloyl-β-D-glucopyranoside], in the data set with c-Myc protein [1], the c-Myc protein expression result is “inhibits c-Myc protein expression”. The “cytotoxicity with ectopically overexpressed c-Myc” value in data set [2] (0.1 mg/mL, FIG. 41) is on record as “there is still cytotoxicity”. Moreover, the “cytotoxicity when GNMT is knocked out (shGNMT-1, shGNMT-2 vs shLacZ)” value in data set [2] (FIG. 40) is “no obvious improvement for the cytotoxicity caused by PGG”. The “cell viability of Huh7-shMyc cells compared with Huh7-shLacZ cells” value in data set [2] (FIG. 44) is “only slightly decrease cell viability”. In the data set on HepG2 cells, the IC50 is 100 µg/mL (≈ 106 µM). Besides, in the data set on GNMT (0.1 mg/ml, Huh7 cells), the “GNMT mRNA expression” value was “induced GNMT mRNA expression” and the GNMT protein expression result is recorded as “induced GNMT protein expression”. Further, the “time of optimal induced effect on GNMT” value in the data set on GNMT (after administration, qPCR and immunoblot) stood at 48 h. In addition, in the data set with c-Myc protein [3], the “expression of c-Myc protein, dose dependence” value is recorded as “suppresses the expression of c-Myc protein in Huh7 cells in a dose-dependent manner” and the “expression of c-Myc protein, time dependence” value is reported as “suppresses the expression of c-Myc protein in Huh7 cells in a time-dependent manner”.
